Test systems include ACHN renal; SNB-75 CNS; NCI-H23 lung; T-47D breast; PC-3 prostate; UACC-257 melanoma; NCI/ADR-RES ovarian; HL-60(TB) leukemia.
What all share (test): growth of human tumour cells (NCI), 48 h

Drawing on PubChem BioAssay (NCI), this text covers GI50 and TGI for ten compounds.

Values joined by “and” are separate entries in the source; they are usually repeats but may differ in a detail not shown here. Equal values may be shown once.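 Following 48 hours of exposure in 96-well plates, responses at five concentrations were used to interpolate endpoints linearly. GI50 is the concentration that inhibits growth by half. TGI: concentration producing complete growth inhibition.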

For `CN1CCN(Cc2ccc(NC(=O)c3cccc(C#Cc4c(N)ncc5ccc(F)cc45)c3)cc2C(F)(F)F)CC1`, the GI50 is 0.509 µM in the test with ACHN renal; 0.257 µM in the test with SNB-75 CNS; 0.865 µM with NCI-H23 lung; 1.05 µM in the test on T-47D breast; 0.852 µM in the test on PC-3 prostate; 0.969 µM in the test on UACC-257 melanoma. The GI50 in the test with NCI/ADR-RES ovarian was 1.02 µM; with HL-60(TB) leukemia it was 0.626 µM. For the same compound, the TGI with ACHN renal was 1.1 µM; in the test on SNB-75 CNS it was 0.866 µM; in the test on NCI-H23 lung it was 1.67 µM; in the test on T-47D breast, 2.65 µM; in the test on PC-3 prostate it was 1.86 µM; with UACC-257 melanoma, 2.11 µM. Further, the TGI was 2.55 µM with NCI/ADR-RES ovarian and 1.88 µM with HL-60(TB) leukemia.
On to `CNC(=S)N(C1CCCCC1)C1CCCCC1`, for which the TGI with ACHN renal, in the test with SNB-75 CNS, with NCI-H23 lung, in the test with T-47D breast, in the test on PC-3 prostate and in the test with UACC-257 melanoma was > 100 µM in each case. The TGI in the test with NCI/ADR-RES ovarian and with HL-60(TB) leukemia was > 100 µM throughout.
Turning to `O=c1c(-c2nc3ccccc3[nH]2)cc2ccccc2n1Cc1cn(Cc2ccccc2Cl)nn1`, the GI50 in the test on ACHN renal is 1.71 µM; in the test with SNB-75 CNS, 1.36 µM; with NCI-H23 lung, 3.43 µM; with T-47D breast it was 2.85 µM; in the test on PC-3 prostate it was 2.6 µM; with UACC-257 melanoma, 3.18 µM. Moreover, the GI50 was 1.94 µM with NCI/ADR-RES ovarian and 6.22 µM with HL-60(TB) leukemia. Besides, the TGI in the test with ACHN renal was found to be 3.27 µM; in the test on SNB-75 CNS, 3.2 µM; with NCI-H23 lung, 24.3 µM; with T-47D breast, 9.88 µM; in the test with PC-3 prostate it was 7.5 µM; with UACC-257 melanoma, 12.6 µM. The TGI was 4.22 µM with NCI/ADR-RES ovarian and > 100 µM in the test with HL-60(TB) leukemia.
For `COCC(=O)NC/C=C/c1ccc2ncnc(Nc3ccc(Oc4ccc(C)nc4)c(C)c3)c2c1`, the GI50 was 3.98 µM with ACHN renal; 12.5 µM with SNB-75 CNS; 17.4 µM in the test on NCI-H23 lung; 1.19 µM in the test on T-47D breast; 15.5 µM with PC-3 prostate; 14.9 µM with UACC-257 melanoma. In addition, the GI50 in the test on NCI/ADR-RES ovarian was 17.2 µM; in the test on HL-60(TB) leukemia, 21.9 µM. Moreover, the TGI with ACHN renal was 69.3 µM; in the test on SNB-75 CNS, 27.2 µM; in the test on NCI-H23 lung, 55.4 µM; in the test on T-47D breast, 13.6 µM; with PC-3 prostate, > 83.1 µM; with UACC-257 melanoma, 36.1 µM. Besides, the TGI was 88.8 µM with NCI/ADR-RES ovarian and 59 µM in the test with HL-60(TB) leukemia.
For `Clc1nc(-c2ccccc2)nc(Cl)c1Cl`, the TGI in the test with ACHN renal was determined as 9.33 µM; in the test on SNB-75 CNS it was 29.1 µM; in the test on NCI-H23 lung, 32.6 µM; in the test with T-47D breast, 28.5 µM; in the test with PC-3 prostate, 24.6 µM; in the test with UACC-257 melanoma, 28.2 µM. In addition, the TGI with NCI/ADR-RES ovarian turned out to be 61.3 µM; in the test on HL-60(TB) leukemia it was 33 µM.
As to `CCC1(N)C(=O)OCc2c1cc1n(c2=O)Cc2cc3ccccc3nc2-1` (stereo not given), the GI50 was 2.75 µM with ACHN renal; 5.78 µM in the test with T-47D breast; 24.4 µM in the test with UACC-257 melanoma; 7.18 µM with NCI/ADR-RES ovarian; 4.44 µM with HL-60(TB) leukemia. Besides, the TGI in the test with ACHN renal is 12.2 µM and 21.3 µM; in the test on SNB-75 CNS, > 78.9 µM; in the test on NCI-H23 lung, 38.2 µM and 54.4 µM; in the test on T-47D breast, > 100 µM and 18.4 µM; in the test on PC-3 prostate, > 100 µM; in the test with UACC-257 melanoma, > 100 µM. For the same compound, the TGI with NCI/ADR-RES ovarian is > 54.1 µM and 61.3 µM.
In the case of `CC(C)=CCc1c(O)c(C(=O)CC(C)C)c(O)c2c(-c3ccccc3)cc(=O)oc12`, the GI50 in the test on ACHN renal is 5.85 µM; with SNB-75 CNS, 9.27 µM; in the test with NCI-H23 lung it was 6.84 µM; in the test on T-47D breast, 11.3 µM; in the test with PC-3 prostate it was 5.71 µM; with UACC-257 melanoma, 6.52 µM. For the same compound, the values for the GI50 with NCI/ADR-RES ovarian and with HL-60(TB) leukemia were 9.25 µM and 7.82 µM, respectively. Further, the TGI in the test with ACHN renal is > 50 µM; in the test on SNB-75 CNS, 41.9 µM; in the test with NCI-H23 lung, > 50 µM; in the test with T-47D breast, 42.1 µM; in the test on PC-3 prostate, 39.8 µM; with UACC-257 melanoma it was 30.2 µM. Also, the TGI is > 50 µM with NCI/ADR-RES ovarian and 27.7 µM in the test with HL-60(TB) leukemia.
Turning to `CCCC(=O)Nc1c(I)cc(I)c(CC(CC)C(=O)O)c1I` (stereo not given), the GI50 with ACHN renal, in the test on SNB-75 CNS, with NCI-H23 lung, in the test on T-47D breast, with PC-3 prostate and with UACC-257 melanoma was > 100 µM in each case. The GI50 in the test with NCI/ADR-RES ovarian and in the test with HL-60(TB) leukemia was > 100 µM each time. Also, the TGI with ACHN renal, with SNB-75 CNS, with NCI-H23 lung, in the test with T-47D breast, in the test with PC-3 prostate and in the test with UACC-257 melanoma was > 100 µM in each case. Also, the TGI with NCI/ADR-RES ovarian and in the test on HL-60(TB) leukemia was > 100 µM each time.
`CN1CCN(c2ccc(-c3cccc(CN4CCOCC4)c3)cc2NC(=O)c2c[nH]c(=O)cc2C(F)(F)F)CC1`: the GI50 was 40.4 µM in the test on ACHN renal; 13.6 µM in the test on SNB-75 CNS; > 100 µM in the test on NCI-H23 lung; 31.3 µM in the test with T-47D breast; 32.3 µM with PC-3 prostate; 16.9 µM in the test with UACC-257 melanoma. The results for the GI50 in the test on NCI/ADR-RES ovarian and in the test with HL-60(TB) leukemia were > 100 µM and 36.4 µM, respectively. Besides, the TGI in the test with ACHN renal was > 100 µM; with SNB-75 CNS, 99.8 µM; in the test with NCI-H23 lung, > 100 µM; in the test on T-47D breast, > 100 µM; in the test with PC-3 prostate, > 100 µM; in the test on UACC-257 melanoma it was 31.6 µM. Also, the TGI in the test on NCI/ADR-RES ovarian and in the test on HL-60(TB) leukemia was > 100 µM each time.
On to `COc1ccc(C(=O)c2cc(C)c(OC)c(C)c2)c(OC)c1N(C(=O)CCl)C(=O)CCl`, for which the GI50 is 0.0773 µM with ACHN renal; 0.0274 µM in the test with SNB-75 CNS; 0.0696 µM with NCI-H23 lung; 0.0445 µM in the test on T-47D breast; 0.0467 µM with PC-3 prostate; 16.8 µM in the test with UACC-257 melanoma. Besides, the figures for the GI50 with NCI/ADR-RES ovarian and with HL-60(TB) leukemia were 0.0311 µM and 0.0316 µM, respectively. The TGI was 36.7 µM in the test on ACHN renal; 27.3 µM in the test on SNB-75 CNS; 14.2 µM in the test on NCI-H23 lung; 44.4 µM in the test on T-47D breast; 18.4 µM with PC-3 prostate; > 88.4 µM in the test with UACC-257 melanoma. In addition, the results for the TGI in the test on NCI/ADR-RES ovarian and with HL-60(TB) leukemia were 1.48 µM and 0.106 µM, respectively.
